From publication PMC8868193 (Antibiotics, 2022)
Like-named read-outs stand apart in the source and are kept apart here. One block for each compound: values may come before it. Non-standard residues stand in square brackets, D forms with d. Residues, ends and D or L forms follow the SMILES beside them. NMeA = CN[C@@H](C)C(=O)O

Columns and labels:
[1] = set-up: method as in 3 sources, ref [9] = [9]; PMID 16839576; doi:10.1016/j.phytochem.2006.05.033; 9. Walton J.D. HC-toxin Phytochemistry 2006 67 1406 1413 10.1016/j.phytochem.2006.05.033 16839576 ||| ref [16] = [16]; PMID 35747077; doi:10.1039/D0RA09388B; 16. Lin X. Chai L. Zhu H.R. Zhou Y. Lin. H.W. Applying molecular networking for targeted isolation of depsipeptides RSC Adv. 2021 11 2774 10.1039/D0RA09388B PMC9134009 35747077 ||| ref [17] = [17]; PMID 32528927; doi:10.3389/fchem.2020.00397; 17. Sala G.D. Mangoni A. Costantino V. Teta R. Identification of the biosynthetic gene cluster of thermoactinoamides and discovery of new congeners by integrated genome mining and MS-Based molecular n; details: literature, cited from earlier work
Candida albicans SC5314 = assay: microbe, parasite or virus in culture; details: for Anti-Fungal MICs: SC5314, pH 7; for MIC: Candida albicans
Experimental: Candida albicans SC5314 was used as a test strain for the antifungal and synergistic antifungal bioassay. Checkerboard assays were carried out as described previously. Overnight cultures were chosen to prepare the strain suspension with RPMI 1640 medium. RPMI 1640 was purchased from Invitrogen, and was used according to the manufacturer’s protocol, by supplementing 2% glucose, 3.45% MOS, then adjusting the pH to 7.0. Compounds were dissolved in DMSO. Final concentrations ranged from 0.002 to 2 μg/mL for rapamycin and 0.39 to 25 μg/mL for peptide-like compounds, respectively. Rapamycin was 2-fold diluted from 1 to 11 (column), while selected compounds were 2-fold diluted from A to G (row) of the 96-well microtiter plate. The fractional inhibitory concentration index (FICI) is defined as the sum of the MIC of each drug when used in combination divided by the MIC of the drug used alone. Synergism and antagonism were defined by FICI of ≤0.5 and >4, respectively.

HDAC8 = target: T1, HDAC8 (Homo sapiens, UniProt Q9BY41); assay: HDAC activity assay (HDAC8 Deacetylase Fluorometric (Human) Assay Kit); assay type: biochemical; details: triplicate
T1 construct: purchased Abnova KA4444
T1 sequence (Q9BY41 1-377): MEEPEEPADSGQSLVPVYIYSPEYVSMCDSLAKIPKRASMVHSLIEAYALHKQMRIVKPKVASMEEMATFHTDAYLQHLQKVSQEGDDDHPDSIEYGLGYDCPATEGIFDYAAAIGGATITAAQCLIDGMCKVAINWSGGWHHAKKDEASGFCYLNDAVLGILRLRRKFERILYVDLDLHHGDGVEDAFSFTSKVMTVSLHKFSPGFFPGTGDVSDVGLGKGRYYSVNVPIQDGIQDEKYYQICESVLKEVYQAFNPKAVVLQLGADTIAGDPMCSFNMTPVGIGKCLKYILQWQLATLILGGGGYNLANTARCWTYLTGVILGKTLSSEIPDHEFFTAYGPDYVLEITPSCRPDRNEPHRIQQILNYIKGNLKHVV
Experimental: The HDAC activity of the compounds was measured using an HDAC8 Deacetylase Fluorometric (Human) Assay Kit (Cat KA4444, Abnova, Taipei, Taiwan) according to the manufacturer’s instructions. Fluorescence signal was detected with excitation at 360 nm and emission at 460 nm using a fluorescence microplate reader (Perkin-Elmer, Waltham, MA, USA). Experiments were performed in triplicate and data were analyzed using GraphPad Prism (version 6.0), Kd values were calculated by nonlinear curve fitting using a 1-site binding (hyperbola) model (Y = Bmax*X/(Kd + X).

[2] = literature; ref [10]; cited from earlier work
Description: Fungal natural products play a prominent role in the development of pharmaceutical agents.

[3] = SC5314, pH 7, read-out: Anti-Fungal MICs

Compound: neoantimycin L
cytotoxicity (in words) ([1]; ref [16]): excellent cytotoxicity

Compound: CC[C@H](C)[C@@H]1NC(=O)[C@H]([C@@H](C)O)NC(=O)[C@@H](Cc2ccc(OC)cc2)NC(=O)[C@H](C)N(C)C1=O [Compound 2, cyclo-[L-N-Me-Ala-L-Ile-L-Thr-D-O-Me-Tyr]] (cyclo([NMeA][dY](Me)TI))
Anti-Fungal MICs (Candida albicans SC5314): >100 µM | antifungal activity alone (in words) (Candida albicans SC5314; compound alone, C. albicans): no antifungal effects alone | Synergistic Anti-Fungal MICs (Candida albicans SC5314; with 0.008 μM rapamycin, C. albicans SC5314, checkerboard, RPMI 1640, pH 7.0, start concentration 25 μM, 90% growth inhibition): 6.25 µM | concentration of compound required with rapamycin for achieving 90% growth inhibition (checkerboard MIC) (Candida albicans SC5314; with 0.008 μM rapamycin, Candida albicans SC5314): 6.25 µM | HDAC inhibitory activity (in words) (HDAC8; HDAC8 fluorometric kit): weak HDAC (histone deacetylase) inhibitory activity

Compound: apicidin
antiprotozoan activity (in words) [2]: antiprotozoan activities

Compound: HC toxin
cytotoxic / antimitogenic activity (in words) ([1]; ref [9]): cytotoxic and antimitogenic activities

MIC (Candida albicans SC5314; [3]): 0.5 µM | concentration of rapamycin required in combination for achieving 90% growth inhibition (checkerboard MIC) (Candida albicans SC5314; together with 6.25 μM of compounds 1 and 2, Candida albicans SC5314): 0.008 µM
Compound: CO[C@H]1C[C@@H]2CC[C@@H](C)[C@@](O)(O2)C(=O)C(=O)N2CCCC[C@H]2C(=O)O[C@H]([C@H](C)C[C@@H]2CC[C@@H](O)[C@H](OC)C2)CC(=O)[C@H](C)/C=C(\C)[C@@H](O)[C@@H](OC)C(=O)[C@H](C)C[C@H](C)/C=C/C=C/C=C/1C [Rapamycin, reference compound]

Compound: thermoactinoamide A
antiproliferative activity (in words) ([1]; ref [17]): moderate antiproliferative activity

Compound: CC[C@H](C)[C@@H]1NC(=O)[C@H](C(C)C)NC(=O)[C@@H](Cc2ccc(OC)cc2)NC(=O)[C@H](C)N(C)C1=O [Compound 1, cyclo-[L-N-Me-Ala-L-Ile-L-Val-D-O-Me-Tyr]] (cyclo(I[NMeA][dY](Me)V))
Anti-Fungal MICs (Candida albicans SC5314): >100 µM | IC50 (HDAC8; text: HDAC at the cell level, method: HDAC8 fluorometric kit, ex 360 nm / em 460 nm, read-out: HDAC inhibition IC50): ~70 µM

MIC (Candida albicans SC5314; [3]): 0.5 µM | MIC (Candida albicans SC5314; SC5314, pH 7, read-out: Synergistic Anti-Fungal MICs): 0.125 µM
Compound: C[C@@H]1[C@H](O)[C@@H](C)/C=C/C=C/C=C/C=C/C=C/C=C/C=C/[C@H](O[C@@H]2O[C@H](C)[C@@H](O)[C@H](N)[C@@H]2O)C[C@@H]2O[C@](O)(C[C@@H](O)C[C@@H](O)[C@H](O)CC[C@@H](O)C[C@@H](O)CC(=O)O[C@H]1C)C[C@H](O)[C@H]2C(=O)O [Amphotericin B, reference compound]
